“Also recorded” adds a separate entry of the source. Values belong to the compound of their own block, whether it stands above or below them.
Key:
[1] = EDTA plasma; settings: human, RT (25 ± 1°C), up to 96 hours
[2] = P800 plasma; settings: human, RT (25 ± 1°C), up to 96 hours
[3] = citrate-plasma; settings: human, RT (25 ± 1°C)
[4] = heparin-plasma; settings: human, RT (25 ± 1°C)
[5] = conventional serum sample; settings: human, RT (25 ± 1°C), up to 96 hours
[6] = in vivo circulation; cited from earlier work
[7] = system: purified DPP-IV enzyme; assay: 50 mM HEPES buffer (pH7.5); settings: 37°C, up to 48 hours

cleaved bond [1]: A8-E9, major, 1h
cleaved bond [2]: A8-E9, minor, after 3-day incubation
cleaved bond [3]: A8-E9, major
cleaved bond [4]: A8-E9, major
Compound: HA/EGTFTSDVSSYLEGQAAKEFIAWLVKGRG

cleaved bond [1]: A8-E9, major, 30 minutes
cleaved bond [2]: A8-E9, minor, after 3-day incubation
cleaved bond [3]: A8-E9, major, 30 minutes
cleaved bond [4]: A8-E9, major
cleaved bond [5]: A8-E9, major, 30 minutes
not cleaved [5]: no G36A-1C
Compound: HA/EGTFTSDVSSYLEGQAAKEFIAWLVKGR-NH2

cleaved bond [1]: A2-E3, major, two hours
cleaved bond [5]: A2-E3, major
Compound: YA/EGTFISDYSIAMDKIHQQDFVNWLLAQKGKKNDWKHNITQ
not cleaved [2]: without any GIP degradation fragments detectable during 4-day incubation at RT; t½ > 96 hours

Compound: glucagon-like peptide 1 [GLP-1]
half-life in circulation [6]: approximately 2 minutes

Compound: CC[C@H](C)[C@H](NC(=O)[C@H](CO)NC(=O)[C@H](Cc1ccc(O)cc1)NC(=O)[C@H](CC(=O)O)NC(=O)[C@H](CO)NC(=O)[C@@H](NC(=O)[C@H](Cc1ccccc1)NC(=O)[C@@H](NC(=O)CNC(=O)[C@H](CCC(=O)O)NC(=O)[C@H](C)NC(=O)[C@@H](N)Cc1ccc(O)cc1)[C@@H](C)O)[C@@H](C)CC)C(=O)N[C@@H](C)C(=O)N[C@@H](CCSC)C(=O)N[C@@H](CC(=O)O)C(=O)N[C@@H](CCCCN)C(=O)N[C@H](C(=O)N[C@@H](Cc1c[nH]cn1)C(=O)N[C@@H](CCC(N)=O)C(=O)N[C@@H](CCC(N)=O)C(=O)N[C@@H](CC(=O)O)C(=O)N[C@@H](Cc1ccccc1)C(=O)N[C@H](C(=O)N[C@@H](CC(N)=O)C(=O)N[C@@H](Cc1c[nH]c2ccccc12)C(=O)N[C@@H](CC(C)C)C(=O)N[C@@H](CC(C)C)C(=O)N[C@@H](C)C(=O)N[C@@H](CCC(N)=O)C(=O)N[C@@H](CCCCN)C(=O)NCC(=O)N[C@@H](CCCCN)C(=O)N[C@@H](CCCCN)C(=O)N[C@@H](CC(N)=O)C(=O)N[C@@H](CC(=O)O)C(=O)N[C@@H](Cc1c[nH]c2ccccc12)C(=O)N[C@@H](CCCCN)C(=O)N[C@@H](Cc1c[nH]cn1)C(=O)N[C@@H](CC(N)=O)C(=O)N[C@H](C(=O)N[C@H](C(=O)N[C@@H](CCC(N)=O)C(=O)O)[C@@H](C)O)[C@@H](C)CC)C(C)C)[C@@H](C)CC [GIP(1–42), glucose-dependent insulinotropic polypeptide]
half-life in circulation [6]: ~5 min

cleaved bond [1]: A8-E9, 30 minutes
Compound: HA/EGTFTSDVSSYLEGQAAKEFIAWLVKGR-OH
cleaved bond [5]: A8-E9, 30 minutes; also recorded: G35-R36, 30 minutes

Compound: HSQGTFTSDYSKYLDSRRAQDFVQWLMNTKRNKNNIA
not cleaved [2]: fragments not detectable during 3-day incubation; full-length OXM stabilized for more than three days

Compound: HS/QGTFTSDYSKYLDSRRAQDFVQWLMNTKRNRNNIA
cleaved bond [7]: S2-Q3, first_seen, 24 hours; also recorded: G4-T5, 48 h

From article PMC4519045 (PLoS ONE, 2015)
